Test systems include MDA-N; NCI-H226; PC-3; T47D; OVCAR-3; SK-MEL-28; NCI-H23; MDA-MB-231; UACC-257; SNB-19; CAKI-1; K562; MDA-MB-435; Hs-578T; SK-MEL-2; A498; HL-60; HOP-92.
Holding throughout (experiment): NCI anticancer screen, dose series, 48 h

Where “and” joins values, the source holds several entries; their conditions need not be identical. Identical values can stand only once.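 Compound exposure: 48 hours, 5 concentrations, 96-well plates. GI50: concentration for 50% inhibition of growth.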 Calls of active or inactive are those of the source. Cut-off read from the data, not from the text of the source: active = GI50 up to about 1.1 µM and inactive = higher.

Turning to `CC#CC(O)(C(=O)OC1CCC2CCC1N2C)C1CCCC1` (stereo unspecified), the GI50 with MDA-N, in the assay with NCI-H226, in the assay with PC-3, in the assay on T47D, with OVCAR-3 and with SK-MEL-28 was > 100 µM (inactive) throughout. In addition, the GI50 in the assay with NCI-H23, in the assay with MDA-MB-231, in the assay on UACC-257, in the assay with SNB-19 and in the assay with CAKI-1 was > 100 µM (inactive) throughout.

For `c1cc(CNC2C3CCC(C3)C2c2c[nH]c3ccccc23)cc(CNC2C3CCC(C3)C2c2c[nH]c3ccccc23)c1` (stereo unspecified), the GI50 in the assay with K562 is 155 nM (active) and 203 nM (active); in the assay with NCI-H226, 2 µM (inactive) and 2.07 µM (inactive); with MDA-MB-435, 658 nM (active) and 637 nM (active); in the assay on PC-3 it was 1.6 µM (inactive) and 1.64 µM (inactive); with T47D, 1.75 µM (inactive) and 1.74 µM (inactive); in the assay on OVCAR-3 it was 1.76 µM (inactive) and 1.71 µM (inactive). For the same compound, the GI50 in the assay on Hs-578T is 1.43 µM (inactive) and 1.62 µM (inactive); with NCI-H23 it was 1.68 µM (inactive) and 1.77 µM (inactive); in the assay with MDA-MB-231, 1.59 µM (inactive) and 1.51 µM (inactive); in the assay on SNB-19 it was 1.41 µM (inactive) and 1.39 µM (inactive); with CAKI-1, 1.65 µM (inactive) and 1.73 µM (inactive); with SK-MEL-2, 1.57 µM (inactive) and 1.91 µM (inactive).

Take `Oc1ccc(Br)cc1/C=N/C1CCCCC1`: the GI50 with K562 is 17.7 µM (inactive); with MDA-N, 34.8 µM (inactive); with MDA-MB-435 it was 28.2 µM (inactive); with A498, > 100 µM (inactive); with PC-3, 15.2 µM (inactive); in the assay on T47D, 4.12 µM (inactive). The GI50 with OVCAR-3 is 13.1 µM (inactive); in the assay with Hs-578T it was 37.7 µM (inactive); with HL-60, 4.81 µM (inactive); with SK-MEL-28, 43.3 µM (inactive); with NCI-H23, 34.4 µM (inactive); with MDA-MB-231 it was 36.3 µM (inactive). The GI50 with UACC-257 was 47.2 µM (inactive); in the assay on SNB-19, 53 µM (inactive); in the assay on CAKI-1, > 100 µM (inactive); in the assay with SK-MEL-2, 25.1 µM (inactive); in the assay with HOP-92, 72.1 µM (inactive).

On to `CN(C)CCNc1ccc(NCC[N+](C)(C)Cc2ccc([N+](=O)[O-])cc2)c2c1C(=O)c1ccccc1C2=O`, for which the GI50 was 18.3 µM (inactive) in the assay with MDA-N; 23.4 µM (inactive) with NCI-H226; > 25 µM (inactive) in the assay on MDA-MB-435; 17.5 µM (inactive) with A498; 13.6 µM (inactive) in the assay with PC-3; > 25 µM (inactive) in the assay with T47D. Also, the GI50 is 12 µM (inactive) with OVCAR-3; 19.3 µM (inactive) in the assay with Hs-578T; 4.28 µM (inactive) in the assay with HL-60; > 25 µM (inactive) in the assay on SK-MEL-28; 20.2 µM (inactive) in the assay on NCI-H23; 4.86 µM (inactive) with MDA-MB-231. Further, the GI50 in the assay on UACC-257 was 8.41 µM (inactive); in the assay with CAKI-1, 3.01 µM (inactive); in the assay on SK-MEL-2 it was > 25 µM (inactive); in the assay with HOP-92 it was > 25 µM (inactive).

Regarding `COc1ccc(N2C(=O)C(=O)C3(CCCCC3)C2=O)c2ccccc12`, the GI50 in the assay on K562, with MDA-N, in the assay on NCI-H226, in the assay on MDA-MB-435, in the assay on A498 and in the assay on PC-3 was > 10 µM (inactive) throughout. In addition, the GI50 in the assay with T47D, with Hs-578T, with HL-60, in the assay with SK-MEL-28, in the assay with NCI-H23 and with MDA-MB-231 was > 10 µM (inactive) throughout. Also, the GI50 in the assay on SNB-19, with CAKI-1 and in the assay on SK-MEL-2 was > 10 µM (inactive) each time.

In the case of `C[n+]1cccc2c(=O)c3ccccc3oc21`, the GI50 in the assay on K562, in the assay on MDA-N, in the assay on NCI-H226, in the assay on MDA-MB-435, with A498 and in the assay with PC-3 was > 100 µM (inactive) each time. The GI50 in the assay with T47D, in the assay on OVCAR-3, in the assay on Hs-578T, in the assay with HL-60, in the assay with SK-MEL-28 and in the assay with NCI-H23 was > 100 µM (inactive) throughout. For the same compound, the GI50 with MDA-MB-231, with SNB-19, with CAKI-1, in the assay on SK-MEL-2 and in the assay with HOP-92 was > 100 µM (inactive) each time.

For the compound `OC(NN=C1CCCC1)(C(F)(F)Cl)C(F)(F)Cl`, the GI50 in the assay with K562, in the assay with MDA-N, with NCI-H226, in the assay with MDA-MB-435, in the assay with A498 and in the assay on PC-3 was > 10 µM (inactive) throughout. Further, the GI50 in the assay with T47D, in the assay on OVCAR-3, with Hs-578T, in the assay with HL-60, in the assay with SK-MEL-28 and in the assay with NCI-H23 was > 10 µM (inactive) each time. The GI50 in the assay with MDA-MB-231, in the assay on UACC-257, in the assay with SNB-19, in the assay with CAKI-1, in the assay on SK-MEL-2 and in the assay with HOP-92 was > 10 µM (inactive) throughout.

With `O=c1[nH]c(=S)[nH]c2c(C3OC(CO)C(O)C3O)nsc12` (stereo unspecified), the GI50 with K562, in the assay on MDA-N, with NCI-H226, with MDA-MB-435, in the assay on A498 and in the assay with PC-3 was > 100 µM (inactive) in each case. Besides, the GI50 in the assay with T47D, with OVCAR-3, in the assay on Hs-578T, in the assay with HL-60, in the assay on SK-MEL-28 and with UACC-257 was > 100 µM (inactive) throughout. In addition, the GI50 with CAKI-1, in the assay on SK-MEL-2 and in the assay on HOP-92 was > 100 µM (inactive) each time.

For the compound `COc1ccc(C2=Nn3c(nnc(Cc4ccc(Cl)cc4)c3=O)SC2)cc1`, the GI50 with K562 was 24.3 µM (inactive); with NCI-H226 it was 94 µM (inactive); with MDA-MB-435, 10.4 µM (inactive); with A498, 30.8 µM (inactive); with PC-3 it was 42.9 µM (inactive); in the assay with T47D, 64 µM (inactive). Moreover, the GI50 was 28.2 µM (inactive) with OVCAR-3; 63.5 µM (inactive) in the assay with Hs-578T; 32.8 µM (inactive) in the assay with HL-60; 74.6 µM (inactive) with SK-MEL-28; 35.4 µM (inactive) with NCI-H23; 60.3 µM (inactive) in the assay on MDA-MB-231. The GI50 in the assay with UACC-257 is 46.9 µM (inactive); in the assay with SNB-19, 53.2 µM (inactive); in the assay with CAKI-1, 38.7 µM (inactive); with SK-MEL-2, 26.5 µM (inactive); in the assay on HOP-92 it was > 100 µM (inactive).

In the case of `CCN(CC)CCn1c(=O)c2c(C)c3oc4ccccc4oc3c(C)c2c1=O`, the GI50 with K562, in the assay on MDA-N, in the assay with NCI-H226, in the assay with MDA-MB-435, with A498 and in the assay on PC-3 was > 100 µM (inactive) throughout. The GI50 with Hs-578T, in the assay on HL-60, with MDA-MB-231, in the assay with UACC-257, in the assay on SNB-19 and in the assay with CAKI-1 was > 100 µM (inactive) each time. For the same compound, the GI50 in the assay on SK-MEL-2 and in the assay with HOP-92 was > 100 µM (inactive) each time.

As for `O=C1c2[nH]c3ccc(Br)cc3c2CCN1Cc1ccc(Cl)cc1`, the GI50 in the assay on K562 was 8.79 µM (inactive); with MDA-N, 14.7 µM (inactive); in the assay with MDA-MB-435, 14.4 µM (inactive); with A498 it was 17.1 µM (inactive); in the assay on PC-3 it was 4.74 µM (inactive); in the assay with T47D, 13.4 µM (inactive). Also, the GI50 with OVCAR-3 was 15.2 µM (inactive); in the assay on Hs-578T, 17.1 µM (inactive); in the assay with HL-60 it was 17.3 µM (inactive); in the assay on SK-MEL-28 it was 14.7 µM (inactive); in the assay with NCI-H23 it was 17.1 µM (inactive); in the assay with MDA-MB-231 it was 11.9 µM (inactive). Also, the GI50 is 15.3 µM (inactive) in the assay with UACC-257; 15.1 µM (inactive) in the assay with SNB-19; 19.5 µM (inactive) in the assay with CAKI-1; 19.1 µM (inactive) in the assay on SK-MEL-2; 16.2 µM (inactive) in the assay with HOP-92.

With `CN(C)C(=S)N/N=C(\C(=N/NC(=S)N(C)C)c1ccccn1)c1ccccn1`, the GI50 was 8.28 µM (inactive) with K562; 11.2 µM (inactive) in the assay with MDA-N; 12.6 µM (inactive) in the assay on NCI-H226; 10.1 µM (inactive) with MDA-MB-435; 14.8 µM (inactive) with A498; 4.26 µM (inactive) with PC-3. Further, the GI50 with T47D was 3.21 µM (inactive); with OVCAR-3, 3.85 µM (inactive); in the assay on Hs-578T it was 1.01 µM (active); in the assay on SK-MEL-28, 16.4 µM (inactive); with NCI-H23, 12.3 µM (inactive); in the assay on MDA-MB-231, 14.7 µM (inactive). For the same compound, the GI50 is 10.7 µM (inactive) in the assay with UACC-257; 12.8 µM (inactive) in the assay on SNB-19; 14.8 µM (inactive) in the assay with CAKI-1; 10.7 µM (inactive) in the assay on SK-MEL-2; 9.35 µM (inactive) with HOP-92.

The record behind these values is ChEMBL document CHEMBL1201862, “PubChem BioAssay data set” (2004).
